The subject of one assay is HDL levels. Nature of the assay: Population studies (Aging, FHS, collective sample), maximum likelihood models of HDL versus vitamin D intake and genotype. The class given is in vivo, human. As to conditions: for increase of HDL: vitamin D deficient subjects, retrospective studies. The method, then:
(§1) Study populations. Factors associated with cardiovascular disease were analyzed using samples from an Aging study population from Utah (“Aging” or “Utah” sample), which included approximately 2500 subjects in 98 Utah pedigrees with 2 or more probands such as, e.g., early stroke, coronary heart disease death, or hypertension. Details regarding subject selection have been previously published. See Williams et al., Recruitment of members of high-risk Utah pedigrees. Control Clin Trials 8: 105S-114S (1987); see also Table 2 below. Additional follow-up assessments were performed, where a validated dietary survey was administered, lipid profiles were determined, DNA was obtained, and standard cardiovascular risk factors were measured. See Hunt et al., Predictors of an increased risk of future hypertension in Utah. A screening analysis. Hypertension 17: 969-976 (1991). In some of the following examples results are described for subjects selected from the foregoing population, wherein samples were excluded if they lacked data relating to complete lipid profiles, genetic polymorphism data, or dietary survey data (n=1060 subjects in 96 families for HDL analysis, and n=1057 subjects in 70 families for triglyceride analysis).
(§2) A replication cohort, moreover, consisted of 5243 caucasian subjects from the NHLBI Family Heart Study (“FamHS” or “FHS” sample), which were not previously administered cholesterol modifying medications. Data for these subjects included lipid profiles and genetic analyses, as described. See Heard-Costa et al., NRXN3 is a novel locus for waist circumference: a genome-wide association study from the CHARGE Consortium. PLoS Genet 5: e1000539 (2009). These population-based families were gathered as part of four studies: the Framingham Heart Study, the Utah Family Tree Study, and ARIC centers in Minneapolis and Forsyth County, N.C. (n=2890 individuals in 504 families; see Table 2 for sample characteristics).
(§3) Both the Aging and FamHS samples were subdivided by season (see Table 2) when measuring both diet and lipids levels. Winter subsamples included data analyzed from November to March and consisted of 362 Aging subjects and 1006 FamHS subjects as shown below in Table 2. Because HDL and triglyceride levels are inversely correlated, vitamin D-triglyceride interactions were also measured from the foregoing samples, as further described below.
(§4) Dietary questionnaire and winter subsamples. Vitamin D intake was measured both in the Aging and FHS samples via a staff-administered semi-quantitative food frequency questionnaire with reproducibility and validity. See, e.g., Willett et al., Reproducibility and validity of a semiquantitative food frequency questionnaire. Am J Epidemiol 122: 51-65 (1985). […] See Jacques et al., Comparison of micronutrient intake measured by a dietary questionnaire and biochemical indicators of micronutrient status. Am J Clin Nutr 57: 182-189 (1993).
(§5) Accordingly, the Aging and FHS studies were subdivided into seasonal and lipid measurement cohorts, both of which occurred at the same clinic visit for the subject.
(§6) Study design and analysis for the aging and FHS samples. jPAP software (see Hasstedt et al., jPAP: Document-driven software for genetic analysis. Genet Epidemiol 29 (2005)), was employed for maximum likelihood analysis, correction of potential covariates, and to estimate heritability attributable to gene-environment interaction factors (interaction) measured as changes in estimated polygenic variance. Natural log transformed HDL was employed as the dependent variable, and all maximum likelihood models included age, sex, and log transformed BMI as baseline covariates. […] Analyses were performed separately for the entire Aging sample and the Aging winter subsample. The results were confirmed using the FHS sample population. […]

The subject of the next assay is triglyceride levels. Nature of the assay: Population studies (collective sample), maximum likelihood models of triglycerides versus vitamin D intake and genotype. The class given is in vivo, human. As for the experimental part:
as §1, §2, §3, §4, §5, §6

Where [1] appears, read: wintertime vitamin D intake raised from 50 IU to 550 IU, heterozygous G/C at rs3135506, model estimate.
[2] abbreviates: wintertime vitamin D intake raised from 50 IU to 550 IU, homozygous C/C at rs3135506, model estimate.

Take `C=C1/C(=C\C=C2/CCC[C@]3(C)[C@@H]([C@H](C)CCCC(C)(C)O)CC[C@@H]23)C[C@@H](O)C[C@@H]1O` [vitamin D, 1,25-dihydroxyvitamin D3]: in the assay on HDL levels (FHS study population, entire sample), the “association of vitamin D alone with HDL levels” value is “not associated with an increase in patient HDL levels”. Further, the “increase of HDL” value is given as 5% in the assay with HDL levels (heterozygous for a vitamin D sensitive allele) and 10% in the assay with HDL levels (homozygous for a vitamin D sensitive allele). Also, the “increase of HDL cholesterol” value was “approximately 10 mg/dL” in the assay with HDL levels (setting [1]) and “approximately 20 mg/dL” with HDL levels (setting [2]). For the same compound, the “decrease of HDL cholesterol” value in the assay with HDL levels (wintertime vitamin D intake raised from 50 IU to 550 IU, homozygous G/G at rs3135506, model estimate) is recorded as “approximately 0.5 mg/dL”. For the same compound, the “effect of vitamin D on triglyceride levels” value in the assay on triglyceride levels (collective sample, entire, patients with rs3135506 polymorphism, p=0.33) is reported as “did not have a significant effect”. Further, the “decrease of triglyceride levels” value in the assay on triglyceride levels (vitamin D deficient subjects, heterozygous for a vitamin D sensitive allele, retrospective studies) is on record as 5%; in the assay on triglyceride levels (vitamin D deficient subjects, homozygous for a vitamin D sensitive allele, retrospective studies), 10%; with triglyceride levels (setting [1]) it was 50 mg/dL; in the assay on triglyceride levels (setting [2]) it was 125 mg/dL. The increase of triglycerides with triglyceride levels (wintertime vitamin D intake raised from 50 IU to 550 IU, homozygous G/G at rs3135506 (wild-type), model estimate) was 2 mg/dL.
